The target of assay [1] is T1, MetQ (Streptococcus pneumoniae, UniProt A0A0H2ZPC6).
T1 construct: gene SPD_0151; His6-MetQ (Sp_0149) without the predicted N-terminal signal peptide, ligand free, cloned from strain D39
Kind of assay: tryptophan fluorescence spectroscopy titration. Format: binding.

Assay [2] deals with T1, MetQ. The experiment in a line: isothermal titration calorimetry (also tryptophan fluorescence, KD […]). Format: binding.

Experimental findings from publication PMC3551916, “The Effects of Methionine Acquisition and Synthesis on Streptococcus Pneumoniae Growth and Virulence” (PLoS ONE, 2013) are described below.

A word on the Kd: it is the concentration at which binding is half-saturated.

T1 sequence (A0A0H2ZPC6 entry or part of it): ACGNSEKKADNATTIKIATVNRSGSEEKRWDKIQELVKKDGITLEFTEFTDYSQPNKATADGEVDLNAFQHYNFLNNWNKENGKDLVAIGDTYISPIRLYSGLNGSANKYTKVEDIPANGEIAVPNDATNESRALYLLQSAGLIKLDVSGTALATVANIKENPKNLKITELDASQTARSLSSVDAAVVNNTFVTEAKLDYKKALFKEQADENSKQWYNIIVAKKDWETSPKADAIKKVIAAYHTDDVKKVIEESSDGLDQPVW

On MetQ [1], `NC(CCS)C(=O)O` (racemic) [DL-homocysteine] gave an equilibrium dissociation constant (Kd) of 7 ± 0.26 µM.

`CSCCC(C)(N)C(=O)O` (racemic) [α-methyl-DL-methionine] had a dissociation constant Kd on MetQ [1] of 30.1 ± 0.86 µM. The same measure, in the same setting: under `CSCC[C@@H](N)C(=O)O` [D-methionine] stands 27.4 ± 0.96 µM. Regarding `CSCC[C@H](N)C(=O)O` [L-methionine], on MetQ [2], binding was put at a Kd of 0.0266 ± 0.00128 µM.
